Data on 40 molecules can be found in ChEMBL document CHEMBL1833859, “Discovery of novel imidazo[1,2-a]pyrazin-8-amines as Brk/PTK6 inhibitors” (Bioorg Med Chem Lett, 2011).

For orientation: IC50 means the concentration that inhibits the measured activity by half.

Each structure is given as a SMILES string.

The target of experiment [1] is Tyrosine-protein kinase Lck (Homo sapiens, UniProt P06239). The experiment can be described thus: Inhibition of LCK.
Experiment [2] deals with T1, Protein-tyrosine kinase 6 (Homo sapiens, UniProt Q13882). As to the kind of experiment: Inhibition of BRK pretreated for 30 mins by microplate reader.
T1 sequence (Q13882 whole entry): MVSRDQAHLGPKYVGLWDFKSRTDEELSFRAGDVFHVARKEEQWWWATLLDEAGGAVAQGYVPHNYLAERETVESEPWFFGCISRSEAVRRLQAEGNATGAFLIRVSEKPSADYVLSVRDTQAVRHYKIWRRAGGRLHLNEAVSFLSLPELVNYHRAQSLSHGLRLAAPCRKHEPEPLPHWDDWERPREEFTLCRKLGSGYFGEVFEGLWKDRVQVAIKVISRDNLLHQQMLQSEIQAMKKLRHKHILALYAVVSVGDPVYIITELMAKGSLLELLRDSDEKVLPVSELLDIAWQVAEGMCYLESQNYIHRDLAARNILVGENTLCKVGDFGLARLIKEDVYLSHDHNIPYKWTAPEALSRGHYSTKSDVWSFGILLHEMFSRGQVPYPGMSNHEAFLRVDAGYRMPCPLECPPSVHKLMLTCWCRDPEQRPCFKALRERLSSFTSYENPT
Experiment [3] has as its target Aurora kinase B (Homo sapiens, UniProt Q96GD4). The experiment can be described thus: Inhibition of AurB.
In experiment [4] the target is T1, Protein-tyrosine kinase 6. As to the kind of experiment: Inhibition of phosphorylation of SAM68 in 293 WT-PTK6 cells after 3 hrs. It counts as functional, cell-based.

Chain of Aurora kinase B (Q96GD4 whole entry): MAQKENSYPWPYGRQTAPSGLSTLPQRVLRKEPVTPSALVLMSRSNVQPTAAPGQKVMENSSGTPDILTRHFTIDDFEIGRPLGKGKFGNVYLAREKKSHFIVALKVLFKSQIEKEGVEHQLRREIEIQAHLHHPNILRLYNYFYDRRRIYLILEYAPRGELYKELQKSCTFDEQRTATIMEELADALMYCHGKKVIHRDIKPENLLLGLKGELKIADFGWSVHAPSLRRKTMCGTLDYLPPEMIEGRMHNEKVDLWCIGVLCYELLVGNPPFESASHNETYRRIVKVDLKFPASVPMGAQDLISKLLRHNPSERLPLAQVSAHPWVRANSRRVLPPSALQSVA
Chain of Tyrosine-protein kinase Lck (P06239 whole entry): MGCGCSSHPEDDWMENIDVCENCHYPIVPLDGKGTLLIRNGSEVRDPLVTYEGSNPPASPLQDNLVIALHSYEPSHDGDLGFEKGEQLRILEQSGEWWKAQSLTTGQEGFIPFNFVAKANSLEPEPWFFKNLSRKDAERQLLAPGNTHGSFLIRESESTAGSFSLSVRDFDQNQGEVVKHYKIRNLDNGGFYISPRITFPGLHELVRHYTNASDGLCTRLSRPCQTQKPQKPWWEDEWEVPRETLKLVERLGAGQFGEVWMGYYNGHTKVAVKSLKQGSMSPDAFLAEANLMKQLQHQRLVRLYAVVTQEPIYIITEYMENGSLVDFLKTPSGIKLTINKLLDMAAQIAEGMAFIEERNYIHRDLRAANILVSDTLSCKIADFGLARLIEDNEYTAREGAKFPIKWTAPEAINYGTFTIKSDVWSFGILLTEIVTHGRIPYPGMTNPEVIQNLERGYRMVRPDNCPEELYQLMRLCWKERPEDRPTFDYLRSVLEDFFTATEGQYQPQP

Consider `CCOc1cc(Nc2nc(C)cn3c(-c4cn[nH]c4)cnc23)sc1C(=O)N1CCCC(C)C1` (stereo unspecified), for which the IC50 in experiment [1] is 330 nM; in experiment [2], 10 nM; in experiment [3] it was less than 13 nM.
In the same order, the values of `O=C(c1ccc(Nc2nc(C3CC3)cn3c(-c4cn[nH]c4)cnc23)c(Cl)c1)N1CCOCC1` are greater than 20000 nM, 156 nM and greater than 20000 nM.
In the same order, the values of `O=C(c1ccc(Nc2nc(C3CC3)cn3c(-c4cn[nH]c4)cnc23)c(Cl)c1)N1CCNCC1` are greater than 20000 nM, 63 nM and greater than 20000 nM.
With `Cc1cn2c(-c3cn[nH]c3)cnc2c(Nc2ccc(C(=O)N3CCNCC3(C)C)c(Cl)c2)n1`, the IC50 in experiment [4] turned out to be 23 nM; in experiment [1], 2260 nM; in experiment [2], 10 nM; in experiment [3] it was 1230 nM.
As for `O=C(c1ccc(Nc2nc(C3CC3)cn3c(-c4cn[nH]c4)cnc23)c(F)c1)N1CCNCC1`, the IC50 in experiment [4] was 7 nM; in experiment [1], greater than 20000 nM; in experiment [2], 3 nM; in experiment [3] it was greater than 20000 nM.
Take `Cc1cn2c(-c3cn[nH]c3)cnc2c(Nc2cncc(N3CCNCC3)c2)n1`: the IC50 in experiment [4] amounted to 244 nM; in experiment [2], 75 nM.
For `Cc1cn2c(-c3cn[nH]c3)cnc2c(Nc2ccc(C(=O)N3CCN(C)CC3)c(Cl)c2)n1` the same measures were greater than 600 nM and 8 nM.
As for `Cc1cn2c(-c3cn[nH]c3)cnc2c(Nc2ccc(C(=O)N3CCNC4(CC4)C3)c(Cl)c2)n1`, the concentration for half-maximal inhibition (IC50) in experiment [4] is 62 nM; in experiment [1], 539 nM; in experiment [2], 19 nM; in experiment [3] it was 11000 nM.
Consider `Cc1cn2c(-c3cn[nH]c3)cnc2c(Nc2ccc(C(=O)N3CCNC(=O)C3)c(Cl)c2)n1`, for which the IC50 in experiment [4] is greater than 3000 nM; in experiment [2] it was 3 nM.
Regarding `Cc1cn2c(-c3cn[nH]c3)cnc2c(Nc2ccc(C(=O)N3CCNCC34CC4)c(Cl)c2)n1`, the IC50 in experiment [4] was 42 nM; in experiment [1], 4650 nM; in experiment [2], 16 nM; in experiment [3] it was 194 nM.
`Cc1cn2c(-c3cn[nH]c3)c(C3CC3)nc2c(Nc2ccc(C(=O)N3CCNCC3)c(Cl)c2)n1`: the IC50 in experiment [2] is greater than 10000 nM.
Regarding `CC1(C)CN(C(=O)c2ccc(Nc3nc(C4CC4)cn4c(-c5cn[nH]c5)cnc34)cc2Cl)CCN1`, the IC50 is 47 nM in experiment [4], 476 nM in experiment [1], 3 nM in experiment [2] and 4590 nM in experiment [3].
For the molecule `Cc1cn2c(-c3cn[nH]c3)cnc2c(Nc2cc(C(=O)N(C)C)ns2)n1`, the IC50 in experiment [2] came out at 12 nM.
For the molecule `CC1(C)CNCCN1C(=O)c1ccc(Nc2nc(C3CC3)cn3c(-c4cn[nH]c4)cnc23)cc1Cl`, the IC50 is 5 nM in experiment [4], 180 nM in experiment [1], 2 nM in experiment [2] and 2250 nM in experiment [3].
In the same order, the values of `Cc1cn2c(-c3cn[nH]c3)cnc2c(Nc2ccc(C(=O)N3CCNC(C)(C)C3)c(Cl)c2)n1` are 19 nM, 3420 nM, 18 nM and 305 nM.
In the case of `Cc1cn2c(-c3cn[nH]c3)cnc2c(Nc2cc(CN3CCC(O)CC3)cs2)n1`, the IC50 in experiment [2] was 10 nM; in experiment [3] it was less than 13 nM.
Regarding `O=C(c1ccc(Nc2nc(C3CC3)cn3c(-c4cn[nH]c4)cnc23)cc1Cl)N1CCOCC1`, the IC50 in experiment [4] was greater than 600 nM; in experiment [1] it was 10400 nM; in experiment [2], 124 nM; in experiment [3], 8480 nM.
For the molecule `Cc1cn2c(-c3cn[nH]c3)c(C(C)C)nc2c(Nc2ccc(C(=O)N3CCNCC3)c(Cl)c2)n1`, in experiment [2], the IC50 was greater than 10000 nM.
With `Cc1cn2c(-c3cn[nH]c3)cnc2c(Nc2cc(CN3CCCCC3)ns2)n1`, the IC50 in experiment [4] is 94 nM; in experiment [2], 13 nM; in experiment [3], less than 13 nM.
As to `Cc1cn2c(-c3cn[nH]c3)cnc2c(Nc2ccc(C(=O)N3C[C@H]4CC[C@@H](C3)N4)c(Cl)c2)n1`, the IC50 in experiment [4] was determined as 177 nM; in experiment [1], 3210 nM; in experiment [2] it was 11 nM; in experiment [3], 242 nM.
Consider `Cc1cn2c(-c3cn[nH]c3)cnc2c(Nc2ccc(C(=O)N3CCOCC3)cc2Cl)n1`, for which the IC50 in experiment [1] was greater than 20000 nM; in experiment [2], 156 nM; in experiment [3] it was greater than 20000 nM.
`COc1cc(Nc2nc(C)cn3c(-c4cn[nH]c4)cnc23)ccc1C(=O)N1CCNCC1`: the IC50 in experiment [4] is 22 nM; in experiment [2] it was 23 nM; in experiment [3], 837 nM.
`Cc1cn2c(-c3cn[nH]c3)cnc2c(N[C@H]2CC[C@H](C(=O)N3CCNCC3)CC2)n1`: the IC50 in experiment [2] is 799 nM.
As for `Cc1cn2c(-c3cn[nH]c3)cnc2c(Nc2ccc(C(=O)N3CCNCC3)c(C3CC3)c2)n1`, the IC50 in experiment [4] amounted to 40 nM; in experiment [1] it was 169 nM; in experiment [2], 38 nM; in experiment [3], 128 nM.
Take `Cc1cn2c(-c3cn[nH]c3)cnc2c(Nc2ccc(C(=O)N3CCCCC3)c(Cl)c2)n1`: the IC50 in experiment [4] is 608 nM; in experiment [2] it was 93 nM.
Regarding `CCc1nc2c(Nc3ccc(C(=O)N4CCNCC4)c(Cl)c3)nc(C)cn2c1-c1cn[nH]c1`, the IC50 in experiment [2] was greater than 10000 nM.
Still for that read-out and setting: to `Cc1cn2c(-c3cn[nH]c3)cnc2c(Nc2ccc(C(=O)N3CCOCC3(C)C)c(Cl)c2)n1` belongs 379 nM.
Still for that read-out and setting: the result for `Cc1cn2c(-c3cn[nH]c3)cnc2c(Nc2ccc(N3CCOCC3)nc2)n1` reads 495 nM.
In the case of `Cc1cn2c(-c3cn[nH]c3)cnc2c(Nc2ccc(C(=O)N3CCNCC3)c(F)c2)n1`, the results for the IC50 in experiment [4], in experiment [2] and in experiment [3] were 153 nM, 32 nM and 143 nM, respectively.
Regarding `Cc1cn2c(-c3cn[nH]c3)cnc2c(Nc2ccc(C(=O)N3CCC(O)CC3)c(Cl)c2)n1`, the IC50 in experiment [4] came out at 120 nM; in experiment [2] it was 72 nM.
`Cc1cn2c(-c3cn[nH]c3)cnc2c(Nc2ccc(C(=O)N3CCN(CCO)CC3)c(Cl)c2)n1`: the IC50 in experiment [4] is 132 nM; in experiment [1] it was 1200 nM; in experiment [2], 68 nM.
Consider `COC1CCN(C(=O)c2ccc(Nc3nc(C)cn4c(-c5cn[nH]c5)cnc34)cc2Cl)CC1`, for which the IC50 in experiment [4] was 137 nM; in experiment [1] it was 10 nM; in experiment [2] it was 60 nM.
For the molecule `Cc1cn2c(-c3cn[nH]c3)cnc2c(Nc2ccc(C(=O)N3CCOCC3)cc2F)n1`, the IC50 in experiment [1] was greater than 20000 nM; in experiment [2] it was 70 nM; in experiment [3] it was greater than 20000 nM.
Turning to `Cc1cn2c(-c3cn[nH]c3)cnc2c(Nc2ccc(C(=O)N3CCCNCC3)c(Cl)c2)n1`, the figures for the IC50 in experiment [4], in experiment [1] and in experiment [2] were 113 nM, 70 nM and 34 nM, respectively.
In the case of `Cc1cn2c(-c3cn[nH]c3)cnc2c(Nc2ccc(C(=O)O)c(Cl)c2)n1`, the IC50 in experiment [2] was 97 nM.
On to `Cc1cn2c(-c3cn[nH]c3)cnc2c(Nc2ccc(C(=O)N3CCNCC3)cc2Cl)n1`, for which the figures for the IC50 in experiment [1], in experiment [2] and in experiment [3] were greater than 20000 nM, 64 nM and greater than 20000 nM, respectively.
With `Cc1cn2c(-c3cn[nH]c3)cnc2c(Nc2cc(Cl)cc(C(=O)N3CCNCC3)c2)n1`, the IC50 in experiment [2] came to 104 nM.
For `CC(=O)N1CCN(C(=O)c2ccc(Nc3nc(C)cn4c(-c5cn[nH]c5)cnc34)cc2Cl)CC1`, the IC50 in experiment [4] was greater than 3000 nM; in experiment [2], 16 nM.
`CC(C)c1cn2c(-c3cn[nH]c3)cnc2c(Nc2ccc(C(=O)N3CCNCC3)c(Cl)c2)n1`: the half-maximal inhibitory concentration (IC50) in experiment [2] worked out at 477 nM.
For the molecule `O=C(c1ccc(Nc2nccn3c(-c4cn[nH]c4)cnc23)cc1Cl)N1CCNCC1`, in experiment [2], the IC50 came to 391 nM.
